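Briefly, cells in 96-well plates were exposed to five compound concentrations for 48 h, and endpoints were estimated by linear interpolation. GI50 marks 50% less growth. TGI: concentration producing complete growth inhibition.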

Test systems include CAKI-1 renal; HCC-2998 colon; HL-60(TB) leukemia; KM12 colon; M14 melanoma; NCI-H23 lung; NCI-H460 lung; SK-OV-3 ovarian; SW-620 colon; UO-31 renal.
What all share (test): NCI anticancer screen, dose series, 48 h

Take `COc1cc2cc3c4c(cc(OC)c(OC)c4c2cc1OC)CCN3C(=O)CCCC(=O)O`: the TGI in the assay on CAKI-1 renal, with HCC-2998 colon, in the assay on HL-60(TB) leukemia, with KM12 colon, in the assay with M14 melanoma and in the assay on NCI-H23 lung was > 100 µM throughout. Moreover, the TGI with NCI-H460 lung, in the assay with SK-OV-3 ovarian, in the assay on SW-620 colon and with UO-31 renal was > 100 µM throughout.
In the case of `CCCOc1ccc(/C(Cl)=C(\C=O)c2ccc(OC)c(OC)c2)cc1OCCC`, the TGI with CAKI-1 renal was > 100 µM; with HCC-2998 colon, 15.4 µM; in the assay with HL-60(TB) leukemia it was 20.9 µM; in the assay on KM12 colon, 34.5 µM; in the assay on M14 melanoma, > 100 µM; in the assay on NCI-H23 lung, 21.6 µM. Moreover, the TGI is 28.7 µM in the assay on NCI-H460 lung, > 100 µM with SK-OV-3 ovarian, > 100 µM in the assay on SW-620 colon and > 100 µM with UO-31 renal.
For `O=C(CCc1nnc2s/c(=C\c3ccccc3)c(=O)n12)Nc1cc(Cl)ccc1Cl`, the TGI with CAKI-1 renal, with HCC-2998 colon, with HL-60(TB) leukemia, in the assay with KM12 colon, in the assay with M14 melanoma and with NCI-H23 lung was > 100 µM each time. In addition, the TGI was > 100 µM in the assay with NCI-H460 lung, > 100 µM with SK-OV-3 ovarian, 23.7 µM with SW-620 colon and > 100 µM in the assay on UO-31 renal.
Turning to `CC(C)=CC/C=C(/C)[C@H]1CC[C@]2(C)[C@@H]1CC[C@@H]1[C@@]3(C)CCC(=O)NC(C)(C)[C@@H]3CC[C@]12C`, the GI50 is 19.6 µM in the assay with CAKI-1 renal; 20.2 µM with HCC-2998 colon; 18.2 µM with HL-60(TB) leukemia; 18.7 µM in the assay on KM12 colon; 17.8 µM in the assay on M14 melanoma; 18.3 µM with NCI-H23 lung. For the same compound, the GI50 in the assay on NCI-H460 lung was 33.9 µM; with SK-OV-3 ovarian, 47.7 µM; in the assay on SW-620 colon, 20.2 µM; with UO-31 renal it was 15.6 µM. In addition, the TGI in the assay on CAKI-1 renal came to 40.3 µM; with HCC-2998 colon, 35.8 µM; with HL-60(TB) leukemia, 49.3 µM; in the assay with KM12 colon it was 37.5 µM; in the assay with M14 melanoma, 39.3 µM; in the assay with NCI-H23 lung it was 45.7 µM. The TGI is > 100 µM in the assay on NCI-H460 lung, > 100 µM in the assay on SK-OV-3 ovarian, 43.9 µM in the assay on SW-620 colon and 29.2 µM in the assay on UO-31 renal.
As to `COC(=O)C(C(=O)C(=O)Nc1cccc(O)c1)c1nc2ccc(Cl)cc2[nH]c1=O` (stereo not given), the TGI in the assay on CAKI-1 renal, in the assay with HCC-2998 colon, with HL-60(TB) leukemia, in the assay on KM12 colon, in the assay with M14 melanoma and in the assay with NCI-H23 lung was > 100 µM throughout. In addition, the TGI with NCI-H460 lung, in the assay on SK-OV-3 ovarian, in the assay on SW-620 colon and with UO-31 renal was > 100 µM each time.
As to `OC(c1ccccc1)(c1ccccc1)c1ccccn1`, the TGI in the assay with CAKI-1 renal, in the assay with HCC-2998 colon, in the assay on HL-60(TB) leukemia, in the assay on KM12 colon, in the assay with M14 melanoma and in the assay on NCI-H23 lung was > 100 µM throughout. In addition, the TGI in the assay on NCI-H460 lung, in the assay with SK-OV-3 ovarian, in the assay with SW-620 colon and with UO-31 renal was > 100 µM throughout.
As to `CCCc1cc(=O)oc2c(C(=O)CC(C)C)c(O)c(CC=C(C)C)c(O)c12`, the GI50 in the assay on CAKI-1 renal was 8.38 µM; in the assay on HCC-2998 colon, 4.87 µM; in the assay with HL-60(TB) leukemia, 7.01 µM; in the assay with KM12 colon, 11 µM; with M14 melanoma, 10.3 µM; in the assay on NCI-H23 lung, 4.05 µM. Further, the GI50 in the assay on NCI-H460 lung is 8.03 µM; in the assay with SK-OV-3 ovarian it was 13.5 µM; with SW-620 colon it was 14.9 µM; in the assay with UO-31 renal it was 12.1 µM. For the same compound, the TGI is 33.9 µM in the assay with CAKI-1 renal; > 50 µM in the assay with HCC-2998 colon; 22.9 µM in the assay with HL-60(TB) leukemia; > 50 µM in the assay on KM12 colon; > 50 µM in the assay with M14 melanoma; 45.8 µM in the assay with NCI-H23 lung. Further, the TGI was > 50 µM with NCI-H460 lung, 41.2 µM with SK-OV-3 ovarian, > 50 µM in the assay with SW-620 colon and > 50 µM in the assay with UO-31 renal.
As to `CCOP(=O)(CCP(=O)(OCC)OCC)OCC.C[CH2][Sn]([Cl])([Cl])[CH2]C`, the GI50 was 13.9 µM in the assay with CAKI-1 renal; > 69.4 µM with HCC-2998 colon; 56.6 µM in the assay on HL-60(TB) leukemia; > 100 µM in the assay on KM12 colon; 41.4 µM with M14 melanoma; 19.9 µM with NCI-H23 lung. Further, the GI50 in the assay on NCI-H460 lung is > 81.8 µM; in the assay with SK-OV-3 ovarian, 99.3 µM; in the assay on SW-620 colon, 21.2 µM; in the assay on UO-31 renal, > 54.2 µM. Also, the TGI was 35 µM with CAKI-1 renal; > 100 µM with HCC-2998 colon; > 95.2 µM with HL-60(TB) leukemia; > 100 µM with KM12 colon; > 57.8 µM with M14 melanoma; 49 µM in the assay with NCI-H23 lung. Further, the TGI with NCI-H460 lung is > 100 µM; in the assay with SK-OV-3 ovarian, > 100 µM; with SW-620 colon, 42.1 µM; in the assay on UO-31 renal it was > 66.5 µM.

The record behind these values is PubChem BioAssay (NCI).
